Experimental data: patent US11147786B2, “Methods of treating chronic dry eye disease using C16:1n7-palmitoleate and derivatives thereof” (Tersus Life Sciences, LLC, priority 2014, dated 2021)
Several values for one entry are separate records, joined by “and”; a condition that tells them apart may be missing. Equal entries are not always repeated. Entries after “also recorded” stand apart in the source; their conditions may differ.

Experiments:
Assay type in all cases: in vivo, human
[1] = test system: patients with moderate to severe dry eye symptoms/MGD; test: Meibomian gland dysfunction (MGD) score, Example 2; design: key to Day 0 MGD RE / Day 0 MGD LE / FV MGD RE / FV MGD LE: 1=meibomian glands in all 3 regions secreting/cloudy; 2=meibomian glands in 2 out of 3 regions secreting/cloudy; 3=meibomian glands in 1 out of 3 regions secreting/cloudy; 4=no observable meibomian gland secretion in any of the 3 regions; 2+ and 2,3 are used interchangeably and mean more than ⅔<1; 2+ and 2,3 are used interchangeably and mean more than ⅔<1
Source text: (§1) Twenty nine patients, each diagnosed as having moderate to severe dry eye symptoms/MGD, were selected for the study.
Patients were classified as having none, mild, or moderate meibomian gland secretion blockage by evaluating the secretion of the meibomian glands in the nasal, central, and temporal regions of the lower eyelid. MGD was scored using a 0-4 grading scale, 4 correlating with severe dysfunction. A summary of the grading scale is provided below: • 1=meibomian glands in all 3 regions secreting/cloudy • 2=meibomian glands in 2 out of 3 regions secreting/cloudy • 3=meibomian glands in 1 out of 3 regions secreting/cloudy • 4=no observable meibomian gland secretion in any of the 3 regions • 2+ and 2,3 are used interchangeably and mean more than ⅔<1.
(§2) After the initial baseline evaluation, patients received daily doses of a dietary supplement containing 210 mg of C16:1n7-palmitoleate for over 30 days.
(§3) Tear osmolarity (TL) and MGD for left and right eyes (LE and RE respectively) were scored at Day 0 (baseline evaluation) and at the follow-up visit (FV), see Table 2. A tear osmolarity score of below 308 mOsms/L is normal, 308-320 mOsms/L is mild dry eyes, 320-340 mOsms/L is moderate dry eyes, and above 340 mOsms/L is severe dry eye. The terms ‘above’ and ‘below’ refer to values above and below the detectable range of the Tearlab diagnostic device respectively. Patients also recorded their comments regarding perceived improvements of their dry eye symptoms.

[2] = test system: patients diagnosed with dry eye disease; test: Tear osmolarity in patients with dry eye disease, Example 1
Procedure: (§4) Patients diagnosed with dry eye disease (as determined by having tear osmolarity over 308 mOsms/L, which is the clinical minimum for dry eyes, per eye) were treated daily with a dietary supplement containing 210 mg of C16:1n7-palmitoleate for 30 days.
(§5) Tear osmolarity for left and right eyes were scored at day 1 and day 30, see Table 1. A tear osmolarity score of below 308 mOsms/L is normal, 308-320 mOsms/L is mild dry eyes, 320-340 mOsms/L is moderate dry eyes, and above 340 mOsms/L is severe dry eye. At day 30, patients also ranked their feeling of improvement of dry eye on a scale of 1-10, see Table 1.

[3] = test system: patients diagnosed with dry eye disease; test: Patient ranking of symptom improvement, Example 1; conditions: patient's ranking at day 30, 210 mg daily; one line per patient 1-8
Procedure: as §4, §5

[4] = test system: patients with moderate to severe dry eye symptoms/MGD; test: Tear osmolarity (TL) in patients with dry eye symptoms/MGD, Example 2
Procedure: as §1, §2, §3

[5] = test system: patients with moderate to severe dry eye symptoms/MGD; test: Patient comments on perceived improvement of dry eye symptoms, Example 2; conditions: patient's comment after 210 mg daily for over 30 days; one line per patient
Procedure: as §1, §2, §3

## CCCCCC/C=C\CCCCCCCC(=O)O [C16:1n7-palmitoleate]
[1]; MGD score 0-4 (4 severe), left eye, Day 0 baseline before treatment, one line per patient
  Day 0 MGD LE: 2 (2×) and 4 (14×) and 2+ (2×) and 3 (8×)
[1]; MGD score 0-4 (4 severe), right eye, Day 0 baseline before treatment, one line per patient
  Day 0 MGD RE: 3 (9×) and 4 (14×) and 2+ (2×) and 2
[1]; MGD score 0-4, left eye, follow-up visit after 210 mg daily for over 30 days, one line per patient
  FV MGD LE: 1 (8×) and 3 (6×) and 2 (7×) and 1, and 2+ and 4 (4×) and 0
[1]; MGD score 0-4, right eye, follow-up visit after 210 mg daily for over 30 days, one line per patient
  FV MGD RE: 1 (9×) and 3 (5×) and 2+ and 2 (6×) and 1, and 4 (5×) and 0
[1]; patients 1, 4-7, 11-13, 15-16, 20-22, 24 and 27
  MG secretion in patients with severe MGD scores initially: showed improvement in MG secretion
[2]; Day 1 (start of treatment), left eye, one line per patient 1-8, below 308 normal, 308-320 mild, 320-340 moderate, above 340 severe
  Tear Osmolarity Day 1, left eye: Left eye 294 mOsms/L; also recorded: Left eye 333 mOsms/L; also recorded: Left eye 312 mOsms/L; also recorded: Left eye 351 mOsms/L; also recorded: Left eye 322 mOsms/L; also recorded: Left eye 314 mOsms/L; also recorded: Left eye 347 mOsms/L; also recorded: Left eye 332 mOsms/L
[2]; Day 1 (start of treatment), right eye, one line per patient 1-8
  Tear Osmolarity Day 1, right eye: Right eye 362 mOsms/L; also recorded: Right eye 305 mOsms/L; also recorded: Right eye 340 mOsms/L; also recorded: Right eye 382 mOsms/L; also recorded: Right eye 325 mOsms/L; also recorded: Right eye 341 mOsms/L; also recorded: Right eye 328 mOsms/L; also recorded: Right eye 367 mOsms/L
[2]; Day 30 of daily dietary supplement with 210 mg, left eye, one line per patient 1-8
  Tear Osmolarity Day 30, left eye: Left eye 300 mOsms/L; also recorded: Left eye 302 mOsms/L; also recorded: Left eye 293 mOsms/L; also recorded: Left eye 314 mOsms/L; also recorded: Left eye 301 mOsms/L; also recorded: Left eye 308 mOsms/L; also recorded: Left eye 313 mOsms/L
[2]; Day 30 of daily dietary supplement with 210 mg, right eye, one line per patient 1-8
  Tear Osmolarity Day 30, right eye: Right eye 314 mOsms/L; also recorded: Right eye 300 mOsms/L; also recorded: Right eye 308 mOsms/L; also recorded: Right eye 302 mOsms/L; also recorded: Right eye 299 mOsms/L; also recorded: Right eye 307 mOsms/L; also recorded: Right eye 367 mOsms/L; also recorded: Right eye 310 mOsms/L
[2]; patients 1, 2, 5 and 7, 30 days of treatment
  Dry eye severity after 30 days in patients with at least one severe dry eye initially: normal or very mild dry eyes
[3]
  Symptom Improvement (Scale of 1-10): 4 (2×) and 7 (2×) and 6 (2×) and 8 and 3
[4]; left eye, Day 0 baseline before treatment, one line per patient
  Day 0 TL LE: 311 mOsms/L and 307 mOsms/L (2×) and 349 mOsms/L (2×) and 312 mOsms/L and 314 mOsms/L (3×) and above (2×) and 324 mOsms/L and 339 mOsms/L and 308 mOsms/L and 364 mOsms/L (2×) and 361 mOsms/L and 317 mOsms/L (2×) and 302 mOsms/L and 326 mOsms/L and 356 mOsms/L and 320 mOsms/L and 313 mOsms/L and 358 mOsms/L and 323 mOsms/L and 327 mOsms/L
[4]; left eye, follow-up visit after 210 mg daily for over 30 days, one line per patient
  FV TL LE: 317 mOsms/L and 298 mOsms/L and 303 mOsms/L (2×) and 291 mOsms/L and 310 mOsms/L and 316 mOsms/L and 314 mOsms/L and 299 mOsms/L (2×) and 354 mOsms/L and 352 mOsms/L and 330 mOsms/L and 324 mOsms/L and 331 mOsms/L and 327 mOsms/L and 300 mOsms/L and above and 305 mOsms/L and below (2×) and 308 mOsms/L and 323 mOsms/L and 311 mOsms/L and 306 mOsms/L
[4]; right eye, Day 0 baseline before treatment, one line per patient 1-29, above/below = outside detectable range of Tearlab device
  Day 0 TL RE: 321 mOsms/L and 316 mOsms/L and 357 mOsms/L and 311 mOsms/L and 326 mOsms/L and 329 mOsms/L (2×) and 383 mOsms/L and 335 mOsms/L and below and 330 mOsms/L (2×) and 318 mOsms/L and 337 mOsms/L and 324 mOsms/L and 313 mOsms/L and 290 mOsms/L and 293 mOsms/L and 235 mOsms/L and 348 mOsms/L and 310 mOsms/L and 301 mOsms/L and 322 mOsms/L and 308 mOsms/L and 360 mOsms/L and 303 mOsms/L and 351 mOsms/L
[4]; right eye, follow-up visit after 210 mg daily for over 30 days, one line per patient
  FV TL RE: 284 mOsms/L and 302 mOsms/L (3×) and 301 mOsms/L and 295 mOsms/L and 307 mOsms/L (2×) and 304 mOsms/L and 348 mOsms/L and 354 mOsms/L and 352 mOsms/L and 345 mOsms/L and 309 mOsms/L and 314 mOsms/L and 318 mOsms/L (2×) and 355 mOsms/L and below (2×) and 294 mOsms/L and 303 mOsms/L and 308 mOsms/L and 311 mOsms/L and 235 mOsms/L
[5]
  Comment (perceived improvement of dry eye symptoms): great (4×) and good (19×) and poor and Better and happy (2×) and better
